# Source: patent publication US6747021B2, “Cryptophycin compound” (Eli Lilly and Company, priority 2000, dated 2004)
# Where two headings read alike, the source gives them in different places.
# Legend:
# [1] = tested on: COLON ADENOCARCINOMA 51/A; assay: Early stage murine colon adenocarcinoma 51/A subcutaneous tumor assay; format: in vivo; details: IV 6.5 mg/kg/inj days 3,6,9; total dose 19.5 mg/kg; CDF female mice
# Source text: (§1) Inhibition of tumors transplanted into mice is an accepted procedure for studying the efficacy of antitumor agents (Corbett, et al., In vivo Methods for Screening and Preclinical Testing; Use of rodent solid tumors for drug discovery., In: Anticancer Drug Development Guide: Preclinical Screening, Clinical Trials, and Approval, B. Teicher (ed), Humana Press Inc., Totowa, N.J., Chapter 5, pages 75-99 (1997); (Corbett, et al., Int. J. Pharmacog., 33, Supplement, 102-122 (1995)). Murine tumors or human xenographs were implanted essentially as described by Corbett in In vivo Methods for Screening and Preclinical Testing; Use of rodent solid tumors for drug discovery. Briefly, the murine tumor or human xenograph was implanted subcutaneously using either 12-gauge trocar implants or counted number of cells. The location for the trocar insertion is midway between the axillary and inguinal region along the side of the mouse. The trocar is slipped approximately ¾ of an inch subcutaneously up toward the axilla before discharging the tumor fragment, and pinching the skin as the trocar is removed. Alternatively, human tumor cells prepared from a […] of donor tumors (5×10^6 cells) were implanted subcutaneously in a hind-leg of a male or female nude mouse (Charles River). Either a test compound in vehicle or vehicle alone was administered by intravenous bolus injection (iv), intraperitoneal injection (ip), or oral gavage (po). Each treatment group, as well as a group of untreated control animals, consisted of five animals per group in each experiment. Subcutaneous tumor response was monitored by tumor volume measurement performed twice each week over the course of the experiment (60-120 days). Body weights were taken as a general measure of toxicity. The subcutaneous tumor data were analyzed by determining the median tumor weight for each treatment group over the course of the experiment and calculating the tumor growth delay as the difference in days for the treatment versus the control tumors to reach a volume of either 500 or 1000 mm^3.
# (§2) Cryptophycin-309 (309) was tested against a variety of murine and human tumors substantially as described supra. Cryptophycin-55 glycinate (55-GLY), Taxol, and Adriamycin (Adria) were also included in certain tests for purposes of comparison. Cryptophycin 55 glycinate is known in the art (WO 98/08505, Example 9) and has the following structure: [drawing 9]
# (§3) Tumor Weight(mg)=(a×b^2)/2 where a=tumor length (mm) and b=tumor width (mm).
# (§4) Tumor Growth Delay=T−C where T is the median time (days) required for the treatment group tumors to reach a predetermined size, and C is the median time (days) for the control group tumors to reach the same size. Tumor-free survivors are excluded from this calculation, and are tabulated separately (Tumor Free).
# (§5) Log Kill=Tumor Growth Delay/(3.32)(Td)
# (§6) where Tumor Growth Delay is as previously defined and Td is tumor volume doubling time (days), estimated from the best fit straight line from a log-linear growth plot of the control group of tumors in exponential growth (100-800 mg range)
# (§7) %T/C mass—The treatment and control groups are measured when the control group tumors reach approximately 700 to 1200 mg in size (median group). The median tumor weight of each group is determined (including zeros). The T/C value in percent is an indication of antitumor effectiveness. A T/C≦42% is considered significant antitumor activity. A T/C<10% is considered to indicate highly significant antitumor activity.
# (§8) Body Weight Loss Nadir—A body weight loss nadir (mean of group) of greater than 20% or drug deaths greater than 20% are considered to indicate an excessively toxic dosage in single course trials.
# (§9) Activity Rating—the Activity Rating is derived from the Log Kill according to the following table: […]
# [2] = tested on: MAMMARY ADENOCARCINOMA-16/C/Adr; assay: Early stage murine mammary adenocarcinoma-16/C/Adr subcutaneous tumor assay; format: in vivo; details: C3H female mice
# Source text: as §1, §2, §3, §4, §5, §6, §7, §8, §9
# [3] = tested on: COLON ADENOCARCINOMA-26/A; format: in vivo, murine; details: IV 6.5 mg/kg/inj days 1,5,9; total dose 19.5 mg/kg; Balb/C female mice
# Source text: as §1, §2, §3, §4, §5, §6, §7, §8, §9
# [4] = tested on: HUMAN COLON ADEN[…]-116; assay: Early stage human colon adenocarcinoma HCT-116 xenograft assay; format: in vivo; details: Balb/C SCID female mice
# Source text: as §1, §2, §3, §4, §5, §6, §7, §8, §9
# [5] = tested on: HUMAN COLON ADENOCARCINOMA 15; format: in vivo; details: Balb/C SCID female mice
# Source text: as §1, §2, §3, §4, §5, §6, §7, §8, §9
# [6] = tested on: MAMMARY ADENOCARCINOMA 16/C; format: in vivo, murine; details: C3H/HeN female mice
# Source text: as §1, §2, §3, §4, §5, §6, §7, §8, §9
# [7] = tested on: MAMMARY ADENOCARCINOMA-17/ADR/Resist.; format: in vivo, murine; details: C3H female mice
# Source text: as §1, §2, §3, §4, §5, §6, §7, §8, §9
# [8] = tested on: PANCREATIC DUCTAL ADENOCARCINOMA #02; format: in vivo, murine; details: BDF1 female mice, experiment ##
# Source text: as §1, §2, §3, §4, §5, §6, §7, §8, §9
# [9] = IV 7.5 mg/kg/inj days 1 and 7, total dose 15 mg/kg
# [10] = IV 28 mg/kg/inj days 3,5,7,9,11, total dose 140 mg/kg
# [11] = IV 32 mg/kg/inj twice/day days 3,5,7,9,11, total dose 320 mg/kg
# [12] = IV 42 mg/kg/inj days 3,5,7,9,11, total dose 210 mg/kg
# [13] = IV 28 mg/kg/inj days 1,3,5,7,9, total dose 140 mg/kg
# [14] = IV 42 mg/kg/inj days 1,3,7,9, total dose 168 mg/kg
# [15] = IV 42 mg/kg/inj days 1,3,5,7,9, total dose 210 mg/kg
smiles,measurement,setting,value
COc1cccc2c1C(=O)c1c(O)c3c(c(O)c1C2=O)C[C@@](O)(C(=O)CO)C[C@@H]3O[C@H]1C[C@H](N)[C@H](O)[C@H](C)O1 [Adriamycin],% T/C MASS,[1],0%
same,ACTIVITY RATING,[1],+++ (2.0-2.8)
same,DRUG DEATHS,[1],0/6
same,GROWTH DELAY,[1],16.6 days
same,LOG KILL,[1],2.0
same,MEDIAN TUMOR WEIGHT,[1],0 mg
same,DRUG DEATHS,[2]; [9],0/5
same,LOG KILL,[2]; [9],None
same,MEDIAN TUMOR WEIGHT,[2]; [9],1096 mg
same,% T/C MASS,[3],44%
same,DRUG DEATHS,[3],0/5
same,LOG KILL,[3],None
same,MEDIAN TUMOR WEIGHT,[3],393 mg
"COc1ccc(C[C@H]2NC(=O)/C=C/C[C@@H]([C@H](C)[C@@H](OC(=O)CN)[C@@H](Cl)c3ccccc3)OC(=O)[C@H](CC(C)C)OC(=O)C(C)(C)CNC2=O)cc1Cl [Cryptophycin 55-GLY, Cryptophycin-55 glycinate]",% T/C MASS,[4]; [10],5.5%
same,ACTIVITY RATING,[4]; [10],+++ (2.0-2.8)
same,DRUG DEATHS,[4]; [10],0/5
same,GROWTH DELAY,[4]; [10],22 days
same,LOG KILL,[4]; [10],2.65
same,MEDIAN TUMOR WEIGHT,[4]; [10],63 mg
same,% T/C MASS,[4]; [11],0%
same,ACTIVITY RATING,[4]; [11],++++ (>2.8)
same,DRUG DEATHS,[4]; [11],0/4
same,GROWTH DELAY,[4]; [11],35 days
same,LOG KILL,[4]; [11],4.2
same,MEDIAN TUMOR WEIGHT,[4]; [11],0 mg
same,% T/C MASS,[4]; [12],0%
same,ACTIVITY RATING,[4]; [12],++++ (>2.8)
same,DRUG DEATHS,[4]; [12],0/5
same,GROWTH DELAY,[4]; [12],25 days
same,LOG KILL,[4]; [12],3.0
same,MEDIAN TUMOR WEIGHT,[4]; [12],0 mg
same,% T/C MASS,[5]; [10],15%
same,ACTIVITY RATING,[5]; [10],+++ (2.0-2.8)
same,DRUG DEATHS,[5]; [10],0/5
same,GROWTH DELAY,[5]; [10],21.5 days
same,LOG KILL,[5]; [10],2.2
same,MEDIAN TUMOR WEIGHT,[5]; [10],171 mg
same,% T/C MASS,[5]; [11],0%
same,ACTIVITY RATING,[5]; [11],++++ (>2.8)
same,DRUG DEATHS,[5]; [11],0/5
same,GROWTH DELAY,[5]; [11],56 days
same,LOG KILL,[5]; [11],4.0
same,MEDIAN TUMOR WEIGHT,[5]; [11],0 mg
same,% T/C MASS,[5]; [12],5.5%
same,ACTIVITY RATING,[5]; [12],+++ (2.0-2.8)
same,DRUG DEATHS,[5]; [12],0/5
same,GROWTH DELAY,[5]; [12],21.5 days
same,LOG KILL,[5]; [12],2.2
same,MEDIAN TUMOR WEIGHT,[5]; [12],63 mg
same,% T/C MASS,[2]; [13],24%
same,ACTIVITY RATING,[2]; [13],++ (1.3-1.9)
same,DRUG DEATHS,[2]; [13],0/5
same,GROWTH DELAY,[2]; [13],6.2 days
same,LOG KILL,[2]; [13],1.7
same,MEDIAN TUMOR WEIGHT,[2]; [13],48 mg
same,% T/C MASS,[2]; [14],0%
same,ACTIVITY RATING,[2]; [14],+++ (2.0-2.8)
same,DRUG DEATHS,[2]; [14],0/5
same,GROWTH DELAY,[2]; [14],7.8 days
same,LOG KILL,[2]; [14],2.1
same,MEDIAN TUMOR WEIGHT,[2]; [14],0 mg
same,% T/C MASS,[6]; [10],0%
same,ACTIVITY RATING,[6]; [10],++++ (>2.8)
same,DRUG DEATHS,[6]; [10],0/5
same,GROWTH DELAY,[6]; [10],15 days
same,LOG KILL,[6]; [10],3.5
same,MEDIAN TUMOR WEIGHT,[6]; [10],0 mg
same,% T/C MASS,[6]; [12],0%
same,ACTIVITY RATING,[6]; [12],++++ (>2.8)
same,DRUG DEATHS,[6]; [12],0/5
same,GROWTH DELAY,[6]; [12],17.5 days
same,LOG KILL,[6]; [12],4.1
same,MEDIAN TUMOR WEIGHT,[6]; [12],0 mg
same,% T/C MASS,[7]; [13],24%
same,ACTIVITY RATING,[7]; [13],++ (1.3-1.9)
same,DRUG DEATHS,[7]; [13],0/5
same,GROWTH DELAY,[7]; [13],5.25 days
same,LOG KILL,[7]; [13],1.6
same,MEDIAN TUMOR WEIGHT,[7]; [13],577 mg
same,% T/C MASS,[7]; [15],0%
same,ACTIVITY RATING,[7]; [15],+++ (2.0-2.8)
same,DRUG DEATHS,[7]; [15],0/5
same,GROWTH DELAY,[7]; [15],7.6 days
same,LOG KILL,[7]; [15],2.3
same,MEDIAN TUMOR WEIGHT,[7]; [15],0 mg
same,% T/C MASS,[8]; [13],9%
same,ACTIVITY RATING,[8]; [13],++ (1.3-1.9)
same,DRUG DEATHS,[8]; [13],0/5
same,GROWTH DELAY,[8]; [13],13 days
same,LOG KILL,[8]; [13],1.8
same,MEDIAN TUMOR WEIGHT,[8]; [13],95 mg
same,% T/C MASS,[8]; [15],0%
same,ACTIVITY RATING,[8]; [15],+++ (2.0-2.8)
same,DRUG DEATHS,[8]; [15],0/5
same,GROWTH DELAY,[8]; [15],16 days
same,LOG KILL,[8]; [15],2.2
same,MEDIAN TUMOR WEIGHT,[8]; [15],0 mg
